pEC50: −log10 of the molar value.
Target: TRPV1 (Homo sapiens, UniProt Q8NER1)
Experiment: Fluo-4 calcium imaging in HEK293 cells stably expressing human TRPV1; no effect in control T-REx HEK293 cells; blocked by AMG9810
Type: cell-based

TRPV1, sequence (Q8NER1 whole entry): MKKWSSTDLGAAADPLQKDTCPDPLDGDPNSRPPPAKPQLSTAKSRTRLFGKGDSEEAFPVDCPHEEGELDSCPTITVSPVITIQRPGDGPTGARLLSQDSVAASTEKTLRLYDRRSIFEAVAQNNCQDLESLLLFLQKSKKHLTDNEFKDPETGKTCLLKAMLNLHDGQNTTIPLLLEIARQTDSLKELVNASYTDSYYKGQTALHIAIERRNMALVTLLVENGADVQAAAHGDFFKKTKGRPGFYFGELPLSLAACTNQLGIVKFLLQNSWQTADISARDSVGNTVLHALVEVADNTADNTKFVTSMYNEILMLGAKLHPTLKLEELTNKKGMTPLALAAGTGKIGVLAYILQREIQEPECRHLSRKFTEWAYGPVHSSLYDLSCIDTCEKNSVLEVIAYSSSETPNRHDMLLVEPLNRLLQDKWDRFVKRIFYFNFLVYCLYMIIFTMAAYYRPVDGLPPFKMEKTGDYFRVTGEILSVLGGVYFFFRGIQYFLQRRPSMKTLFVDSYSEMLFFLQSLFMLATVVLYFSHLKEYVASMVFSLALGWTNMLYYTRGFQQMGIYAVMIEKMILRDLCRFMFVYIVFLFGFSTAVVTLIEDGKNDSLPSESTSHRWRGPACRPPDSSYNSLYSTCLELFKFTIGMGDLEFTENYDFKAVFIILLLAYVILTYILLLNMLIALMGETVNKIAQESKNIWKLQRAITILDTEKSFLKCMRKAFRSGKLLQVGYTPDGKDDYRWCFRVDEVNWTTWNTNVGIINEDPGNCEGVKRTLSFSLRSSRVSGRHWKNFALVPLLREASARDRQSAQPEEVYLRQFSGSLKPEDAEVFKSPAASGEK

O=C(/C=C/C=C/c1ccc2c(c1)OCO2)N1CCCCC1 [Piperine]
pEC50: 5.97

From article PMC7201532, “The role of Piper chaba Hunt. and its pure compound, piperine, on TRPV1 activation and adjuvant effect” (BMC Complementary Medicine and Therapies, 2020)
